Target: T1, VHL (GST-VBC) (Homo sapiens, UniProt P40337)
T1 construct: made in house; host or cells: E. coli BL21(DE3)
Assay: SPR binary affinity, PROTAC on immobilized GST-VBC
Type: binding
Experimental: FIGS. 16A, 16B, and 16C. SPR curves assessing binary and ternary interactions. […] (C) SPR kinetic evaluation of p38δ:compound 46:VHL and p38δ:compound 50:VHL ternary complex interactions. Equimolar p38δ:PROTAC mixtures were injected onto immobilized GST-VBC and allowed to dissociate overtime. […] See Table 12 for a summary of the binary and ternary affinity and kinetic measurements.
Next, with the same setup, equimolar p38δ:PROTAC dilutions were successively injected onto immobilized VHL for 60 seconds, prior to monitoring complex dissociation for the remaining 300 seconds. […]
For the expression of GST-tagged VHL:Elongin B:Elongin C (herein referred to as GST-VHL), wild-type human VHL, Elongin B, and Elongin C were co-expressed in E. coli. […] Eluted protein was assessed for identity and purity via coomassie staining of sample run on an SDS-PAGE gel and pure elutions were pooled, concentrated, and diluted in ion-exchange buffer A (30 mM Tris pH 8.0, 5% glycerol, 1 mM DTT) until the salt concentration was 50 mM, before loading onto a Mono Q 5/50 GL column (GE Life Sciences). […] Fractions were then assessed for purity via coomassie, pooled, concentrated, and run on a Superdex-200 column (GE Life Sciences) using size-exclusion buffer (30 mM Tris pH 8.0, 100 mM NaCl, 10% glycerol, 1 mM DTT). […]

T1 sequence (P40337 whole entry): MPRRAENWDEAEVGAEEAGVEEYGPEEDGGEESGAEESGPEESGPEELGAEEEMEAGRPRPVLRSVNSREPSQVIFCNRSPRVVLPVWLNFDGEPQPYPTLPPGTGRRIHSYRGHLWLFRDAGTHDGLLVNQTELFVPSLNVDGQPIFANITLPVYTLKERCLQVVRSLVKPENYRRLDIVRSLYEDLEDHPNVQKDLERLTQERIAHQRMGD
T1 sequence (Q15370 whole entry partner): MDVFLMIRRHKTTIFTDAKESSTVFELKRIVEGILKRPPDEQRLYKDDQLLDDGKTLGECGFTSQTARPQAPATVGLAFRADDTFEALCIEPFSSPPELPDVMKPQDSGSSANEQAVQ
T1 sequence (Q15369 whole entry partner): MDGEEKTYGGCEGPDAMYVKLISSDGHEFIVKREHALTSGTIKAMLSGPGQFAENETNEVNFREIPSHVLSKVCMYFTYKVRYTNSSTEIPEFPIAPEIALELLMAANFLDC

| Structure (SMILES) | Kd [µM] |
| --- | --- |
| COc1cc2c(Oc3ccc(NC(=O)C4(C(=O)Nc5ccc(F)cc5)CC4)cc3F)ccnc2cc1OCCOCCOCCOc1cc(-c2scnc2C)ccc1CNC(=O)[C@@H]1C[C@@H](O)CN1C(=O)[C@H](C(C)C)N1Cc2ccccc2C1=O [compound 46] | 3.5 |
| COc1cc2c(Oc3ccc(NC(=O)C4(C(=O)Nc5ccc(F)cc5)CC4)cc3F)ccnc2cc1OCCCCOCCCCOCC(=O)N[C@H](C(=O)N1C[C@H](O)C[C@H]1C(=O)NCc1ccc(-c2scnc2C)cc1)C(C)(C)C [compound 50, N-(3-fluoro-4-((7-(4-(4-(2-(((S)-1-((2S,4R)-4-hydroxy-2-((4-(4-methylthiazol-5-yl)benzyl)carbamoyl)pyrrolidin-1-yl)-3,3-dimethyl-1-oxobutan-2-yl)amino)-2-oxoethoxy)butoxy)buto-xy)-6-methoxyquinolin-4-yl)oxy)phenyl)-N-(4-fluorophenyl)cyclopropane-1,1-dicarboxa-mide] | 5 |

— patent US20180353501A1 (Arvinas, Inc., priority 2017, published 2018)
